From patent US8741641B2, “Methods for evaluating the stage of ovarian cancer or the survival rate of an ovarian cancer patient” (Fujifilm Corporation, priority 2007, dated 2014)

Legend:
[1] = test system: CTGF gene; test: RT-PCR analysis of CTGF gene expression in ovarian cancer cell lines after treatment with demethylating reagent or deacetylation inhibitory agent; format: cell-based; details: ovarian cancer cell lines HNOA and RMG-II not expressing the CTGF gene
Description: D: Ovarian cancer cell lines (HNOA and […]) were treated (+) or not treated (−) with 5-aza-dCyd (5 μM) for 5 days or TSA (100 ng/ml) for 12 hours. The results of RT-PCR analysis on the CTGF gene in the ovarian cancer cell lines.
To examine the expression levels of the 7 above genes (the CTGF gene, the ENPP1 gene, the ENPP3 gene, the CRSP3 gene, the AKAP7 gene, the EPB41L2 gene, and the KIAA1913 gene), 24 types of ovarian cancer cell line, normal ovary, and a normal ovarian epithelial cell-derived immortalized cell line (OSE-2a) were subjected to reverse transcriptase (RT)-PCR. Specifically, a single-chain cDNA was synthesized from the RNA extracted from each cultured cell line using the SuperScript First-Strand Synthesis System (Invitrogen). Moreover, a glyceraldehyde-3-phosphate dehydrogenase (GAPDH) gene was used as a control. As a result, decreased expression levels of the CTGF gene, the ENPP1 gene, and the KIAA1913 gene were shown, compared with the case of normal ovary or OSE-2a cells (FIG. 1D), although chromosomal region 6q23.1-23.2 had not undergone homozygous deletion. This may be due to a mechanism other than genomic deletion, such as an epigenetic phenomenon in ovarian cancer cell lines. Moreover, in the above experiment, the ARG1 gene was not subjected to examination, since the gene is not expressed in the ovary according to the results of analyzing the gene expression database (ncbi.Nlm.nih.gov and http://www.lsbm.org/database/index.html).
To examine if suppressed CTGF gene expression is due to DNA methylation, ovarian cancer cell lines (HNOA and RMG-II) not expressing the CTGF gene were treated using 5 μM demethylating reagent 5-aza-dCyd for 5 days or using deacetylation inhibitory agent TSA (100 ng/ml) for 12 hours. RNAs were extracted from these cells and then CTGF gene expression was examined by RT-PCR (FIG. 1D).

[2] = test system: CpG islands of the CTGF gene; test: Demethylation of CpG islands of the CTGF gene in ovarian cancer cells cultured with demethylating reagent; format: cell-based; details: ovarian cancer cells cultured in the presence of the reagent

Row | Compound | CTGF gene expression (RT-PCR) ([1]; 5 μM for 5 days) | CTGF gene expression (RT-PCR) ([1]; 5 μM for 5 days, listed as 5-azadeoxycytidine) | demethylation of CpG islands [2] | CTGF gene expression (RT-PCR) ([1]; 100 ng/ml for 12 hours)
1 | Nc1ncn([C@H]2C[C@H](O)[C@@H](CO)O2)c(=O)n1 [5-aza-dCyd, 5-azadeoxycytidine] | recovers its gene expression | recover the expression level of the CTGF gene | possible to demethylate such CpG islands | –
2 | CC(/C=C/C(=O)NO)=C\[C@@H](C)C(=O)c1ccc(N(C)C)cc1 [TSA] | – | – | – | no differences
